Source: patent publication US8974836B2, “Angiogenesis regulating composition and method for regulating angiogenesis” (Air Water, Inc., priority 2009, dated 2015)
Like-named read-outs stand apart in the source and are kept apart here.

How the values were obtained:
[1] = tested on: model mice of oxygen-induced retinal angiogenesis; experiment: Exemplary experiment 4: nitrite versus general-purpose nitrogen monoxide donor drugs, retinal avascular area; assay type: in vivo, C57BL/6J mouse
Protocol: Preparation of the model mice of oxygen-induced retinal angiogenesis, fluorescent imaging of retinal vessels and a retinal flat-mount were operated according to exemplary experiment 1.
(§1) Areal ratio of retinal avascular area was calculated pursuant to exemplary experiment 1.

[2] = tested on: model mice of oxygen-induced retinal angiogenesis; experiment: Exemplary experiment 2: suppression of pathologic neovascularization (pathological vessels extending into the vitreum); assay type: in vivo, C57BL/6J mouse; conditions: for number of pathological vessels breaking the inner limiting membrane and extending into the vitreum: 15 or 75 μmol/kg once per day P7-P16, P17, FIG. 2, versus physiological saline
Protocol: The effect of sodium nitrate and sodium nitrite for suppression of pathologic neovascularization by oxygen-induced retinal vascularized model was evaluated.
(§2) Sodium nitrate or sodium nitrite as a test compound was dissolved in physiological saline for injection to prepare a test compound injection of […].
C57BL/6J mouse (SLC) was used as an experimental animal. The model mice of oxygen-induced retinal angiogenesis were prepared according to exemplary experiment 1. Sodium nitrate or sodium nitrite was injected to a cervical region hypodermically once per day in amount of 15 or 75 μmol/kg for ten days from the 7th day (P7) to the 16th day (P16) after birth. In addition, physiological saline as controls was similarly injected hypodermically instead of test compound.
On the 17th day after birth (P17), the mice were euthanised by overdose of pentobarbital, and eyes were removed together with optic nerve. The eyes were washed in physiological saline, excessive tissues were excised, and the eyes were thus fixed in a 4% paraformaldehyde phosphate buffer for 12 hours. After the fixation, the eyes were dehydrated by immersing in a graded ethanol series of 70-100% sequentially and were embedded in paraffin.

[3] = tested on: model mice of oxygen-induced retinal angiogenesis; experiment: Exemplary experiment 3: regulation of retinal angiogenesis, administration from start of angiogenesis (P12); assay type: in vivo, C57BL/6J mouse; conditions: for value of areal ratio of retinal avascular area / value of retinal avascular area: 15 μmol/kg hypodermically once per day P12-P16, average; for reduction of retinal avascular area in comparison with a control group: 15 μmol/kg, administered from the start of retinal angiogenesis (P12)
Protocol: For the model mice of oxygen-induced retinal angiogenesis, retinal angiogenesis is induced by providing 75% oxygen followed by breeding in room air during P12-P17.
Sodium nitrate or sodium nitrite as a test compound was dissolved in physiological saline for injection to prepare a test compound injection of […].
Preparation of the model mice of oxygen-induced retinal angiogenesis, fluorescent imaging of retinal vessels and a retinal flat-mount were operated according to exemplary experiment 1. However sodium nitrate or sodium nitrite was injected to a cervical region hypodermically once per day in amount of 15 μmol/kg for […] from the 12th day (P12) to the 16th day (P16) after birth. In addition, physiological saline as controls was similarly injected hypodermically instead of test compound for the same period of time.
as §1

[4] = Exemplary experiment 6: plasma concentration of nitrate ions after administration; conditions: P12, average
Protocol: as §2
C57BL/6J mouse (SLC) was used as an experimental animal. The model mice of oxygen-induced retinal angiogenesis were prepared according to exemplary experiment 1. […] Thereafter, isoflurane was used to anesthetize the mice, and 150 μl of blood was collected from the abdominal aorta over time. Plasma concentration of nitrate ions was measured by ion exchange chromatography using a normal phase column under the following conditions:
Conditions for Ion Exchange Chromatography • Separation column: Asahipak NH2P-50 4E (4.6 mm×250 mm) • Guard column: Inertsil NH2 (5 μm) (4 mm×10 mm) • Mobile phase: 10 mM of sodium dihydrogenphosphate, 150 mM of sodium perchlorate, 5.0 • Flow rate: 0.7 ml/min • Detection wavelength: 210 nm

[5] = tested on: model mice of oxygen-induced retinal angiogenesis; conditions: for retinal avascular area reduced as compared to control group: 15 or 75 μmol/kg once per day P7-P16, versus physiological saline
Excerpt: C57BL/6J mouse (SLC) was used as an experimental animal. […] Neonatal mice were bred from the 7th day (P7) to the 12th day (P12) after birth together with a parent mouse in a cage of high levels of oxygen (75±1% of O2) controlled by oxygen control equipment (PRO-OX110, produced by Reming Bioinstruments Co) to provide high levels of oxygen (75±1% of O2). Retinal angiogenesis was induced by breeding under normoxic condition (21% of O2) from the 12th day to the 17th day after birth. […] In addition, physiological saline as controls was similarly injected hypodermically instead of test compound.
Fifty micro grams per animal of fluorescein-conjugated dextran (FITC-dextran; M.W. 2×10^6, produced by SIGMA) were systemically perfused from the left ventricle under deep anesthesia with pentobarbital on the 17th day after birth (P17). After the perfusion, eyes of mouse were removed and fixed in a 4% paraformaldehyde phosphate buffer for 4-12 hours. After the fixation, the cornea and the lens were excised from eye, and the residual hyaloid artery was removed by micro tweezers. The retina was separated under a microscope, and subsequently set flat and embedded in [sequence] (produced by Vector Laboratories Inc.) for preparation of a retinal flat-mount.
Flat mounted retinas were imaged with a high sensitivity CCD camera under a fluorescent inverted microscope (Olympus IX71). A value of total retinal area and a value of retinal avascular area in obtained image were converted to numeric data by Photoshop CS4 extended (Adobe), and a value of areal ratio of retinal avascular area in comparison with the value of total retinal area was calculated by the following equation: value of areal ratio of retinal avascular area=value of retinal avascular area (μm^2)/value of total retinal area (μm^2)×100

[6] = in vivo; cited from earlier work
[7] = tested on: model mice of oxygen-induced retinal angiogenesis; experiment: Exemplary experiment 5: nitrite versus anti-VEGF antibody, retinal avascular area; assay type: in vivo, C57BL/6J mouse; conditions: 15 μmol/kg hypodermically once per day P7-P16, average
Protocol: Using the model mice of oxygen-induced retinal angiogenesis, a comparison was made about retinopathy treatment effect between nitrite and an anti-VEGF antibody used for treatment of progressive colorectal cancer, age-related macular degeneration and so on.
Sodium nitrite as a test compound was dissolved in physiological saline for injection to prepare a test compound injection of 3 μmol/ml. For a comparative example, a murine monoclonal anti-VEGF antibody (produced by SANTACRUZ BIOTECHNOLOGY, INC.) was condensed to prepare 500 μg IgG/ml of an injection for the comparative example.
Preparation of the model mice of oxygen-induced retinal angiogenesis, fluorescent imaging of retinal vessels and a retinal flat-mount were operated according to exemplary experiment 1. Sodium nitrite was injected to a cervical region hypodermically once per day in amount of 15 μmol/kg for ten days from the 7th day (P7) to the 16th day (P16) after birth. The anti-VEGF antibody was injected through the corneal limbus to the vitreous body with a microsyringe equipped with a 33G hypodermic needle, by cutting mice eyelids open when oxygenation ended (on the 12th day alter birth).
as §1

methemoglobinemia = conditions: reported for Rodentia; cited from earlier work
[8] = 20 μmol/kg hypodermically once per day P7-P16, average
[9] = 75 μmol/kg hypodermically once per day P7-P16, evaluated P17, average
[10] = 15 μmol/kg hypodermically once per day P7-P16, average
[11] = 15 μmol/kg hypodermically once per day P7-P16, evaluated P17, average

For `O=[N+]([O-])OCC(CO[N+](=O)[O-])O[N+](=O)[O-]` [NTG, nitroglycerin], the “value of areal ratio of retinal avascular area” value [1, 8] was 21.36%, the “value of retinal avascular area” value [1, 8] was 1456421.33 μm^2 and the “retinal avascular area increased in comparison with a group administered with nitrite” value ([1]; SNP 2 μmol/kg, NTG 20 μmol/kg versus sodium nitrite 15 μmol/kg, P7-P16) was “approximately 3.3 times”. For the same compound, the “reduction of avascular area (typical symptom of retinopathy), in words” value ([1]; SNP 2 μmol/kg, NTG 20 μmol/kg, once per day P7-P16) was “Neither SNP nor NTG was observed to reduce”.

In the case of `O=[N+]([O-])[O-].[Na+]` [sodium nitrate], the “number of pathological vessels breaking the inner limiting membrane and extending into the vitreum” value [2] is reported as “decreased”, the “value of areal ratio of retinal avascular area” value [3] is reported as 8.76% and the “value of retinal avascular area” value [3] is reported as 506451.72 μm^2. For the same compound, the “reduction of retinal avascular area in comparison with a control group” value [3] was “approximately 40%”, the “maximum plasma concentration of nitrate ions after single-dose administration” value ([4]; 15 μmol/kg subcutaneously in cervical region) was 135.38 µmol/L and the “maximum plasma concentration of nitrate ions after single-dose administration” value ([4]; 75 μmol/kg subcutaneously in cervical region) was 194.9 µmol/L. For the same compound, the “value of areal ratio of retinal avascular area” value [5, 9] was 12.7%, the “value of retinal avascular area” value [5, 9] was 842271.02 μm^2 and the “retinal avascular area reduced as compared to control group” value [5] was “approximately 20%”. For the same compound, the “nitrate having entered systemic circulation secreted in saliva” value [6] was “approximately 25%” and the “portion of nitrate in saliva reduced to nitrite by dental bacteria” value [6] was “approximately 30%”.

For `O=NO` [sodium nitrite], the “pathological vessels reduced as compared with a control” value ([2]; 75 μmol/kg once per day P7-P16, P17) was “approximately 30%”, the “number of pathological vessels breaking the inner limiting membrane and extending into the vitreum” value [2] was “decreased” and the “value of areal ratio of retinal avascular area” value [3] was 9.3%. For the same compound, the “value of retinal avascular area” value [3] was 621218.70 μm^2, the “reduction of retinal avascular area in comparison with a control group” value [3] was “approximately 40%” and the “value of areal ratio of retinal avascular area” value [1, 10] was 6.44%. For the same compound, the “value of retinal avascular area” value [1, 10] was 417863.94 μm^2, the “value of areal ratio of retinal avascular area” value [7] was 9.3% and the “value of retinal avascular area” value [7] was 621218.70 μm^2. The “value of areal ratio of retinal avascular area” value ([7]; listed as nitrite) was 9.3%, the “value of areal ratio of retinal avascular area” value [5, 11] was 6.44% and the “value of retinal avascular area” value [5, 11] was 417863.94 μm^2. For the same compound, the “value of areal ratio of retinal avascular area” value [5, 9] was 10.01%, the “value of retinal avascular area” value [5, 9] was 571705.28 μm^2 and the “retinal avascular area reduced as compared to control group” value [5] was 40-60%. The “maximal no-effect dose for methemoglobinemia” value (methemoglobinemia) was 84 mg/kg/day.
